Source: US20090105343A1, “Cancer Therapy And Medicaments Therefor” (The University of Birmingham, priority 2004, published 2009)
pEC50: −log10 of the molar value. Entries after “also recorded” stand apart in the source; their conditions may differ.

Tests used:
Assay type in all cases: cell-based
p21^(waf1/cip1) = experiment: Upregulation of CDKI p21(waf1/cip1); settings: 2 μM
Method: (§1) Cells were seeded at a density of 2×10^4/cm^2 and allowed to grow for 36 h to ensure that cells were in mid-exponential phase upon treatment. Total RNA was extracted using the GenElute RNA extraction system (Sigma) according to manufacturer's instructions. Primary cultures were serially passaged and grown to 80% confluency in standard serum-free medium. Cells were fed one day prior to isolation of total RNA using the Qiagen RNeasy Midi kit (Qiagen, Palo Alto, Calif., USA).
(§2) For real time reverse transcription-polymerase chain reaction (RT-PCR), cDNA was prepared from 1 μg of total RNA by reverse transcription with Mu-MLV (Promega Southampton, UK) at 42° C. for 60 min in the presence of 100 mM Tris-HCl, pH 9.0, 500 mM KCl and 2 mM MgCl2, 100 μM random hexamers (Pharmacia, Pisacataway, N.J.), 2 mM dNTP and 20 U RNAsin (Promega) in a 20 μl reaction volume.
(§3) Expression of specific mRNAs was quantitated using the ABI PRISM 7700 Sequence Detection System. […]
(§4) Data were expressed as Ct values (the cycle number at which logarithmic PCR plots cross a calculated threshold line) and used to determine δCt values (δCt=Ct of the target gene minus Ct of the housekeeping gene). […]

GADD45α [1] = experiment: GADD45α gene induction (Q-RT-PCR); settings: 0.1 μM, 8 hr
Method: as §1, §2, §3, §4

DU-145 cells = experiment: Cell cycle analysis (propidium iodide flow cytometry); settings: DU-145, 1 μM, after 24 hr (ctrl 41%)
Method: The effect of nuclear receptor ligands in combination with the HDAC inhibitors on the cell cycle was measured by staining DNA with propidium iodide (PI). Briefly, T25 flasks were seeded with 2.5×10^5 sub-confluent, exponentially proliferating cells, exposed to 100 nM 1α,25(OH)2D3 alone or combined with either 300 μM NaB or 15 nM TSA at times 0 (and re-dosed after 48 hours in 72 and 96 hr assays). After a total of 24, 48, 72 and 96 hours, cultures were harvested by trypsinising, counted and 1×10^6 cells were stained with PI buffer (10 μg/ml PI, 1% (w/v) tri-sodium citrate, 0.1% (v/v) Triton X-100, 100 μM sodium chloride (Sigma)). Cell cycle distribution was determined using a Becton-Dickinson Flow Cytometer and CellFIT Cell-Cycle Analysis software.

[2] = system: prostate cancer cell lines; experiment: Proliferation assay (ATP bioluminescence), prostate cancer cell lines, single agents and combinations
Method: (§5) The action of individual agents alone and in combination was examined using a bioluminescent technique to measure changes in cellular ATP (ViaLight HS, LumiTech, Nottingham, U.K.) with previously optimised conditions according to the manufacturer's instructions (Rashid, S. F. et al. Supra). Briefly, cells were plated in 96 well white-walled tissue culture-treated plates (Fisher Scientific Ltd. Loughborough, U.K.) (cancer cell lines at 2×10^3 cells/well; PrEC at 3.5×10^3 cells/well). […] After the incubation period, 100 μl of nucleotide releasing reagent was added to each well and cells were left for 30 minutes at room temperature. Liberated ATP was quantitated by adding 20 μl of ATP monitoring reagent (containing luciferin and luciferase) and measuring luminescence with a microplate luminometer (Berthold Detection Systems, Fisher Scientific Ltd.). ATP levels were recorded in relative luciferase units and growth inhibition was expressed as a percentage of control.
The interactions of two compounds were assessed by measuring the mean of either the nuclear receptor ligand or the HDAC inhibitor acting alone or in combination. The mean observed combined effect was compared to the individual effects of the agents added together, using the Student's t-test. […] All other analyses were also compared using the Student's t-test.

EJ-28 = experiment: Proliferation assay (ATP bioluminescence), EJ-28 bladder cancer cells; settings: for Sensitivity of EJ-28 proliferation to ligand treatment: EJ-28 cells, ligand alone
Method: as §5

GADD45α [3] = experiment: GADD45α induction in PC-3 cells after SMRT knock down; settings: SMRT knocked down by RNAi
Description: SIRNA fragments (22mers) were generated in vitro using a Dicer generation system according to the manufacturer's protocol (Gene Therapy Systems, San Diego, Calif.). Briefly, a 650 bp region from the human SMRT gene sequence corresponding to 112 to 762 was amplified using the following primers containing T7 promoter sequences;
FS: 5′-[…]-3′ and RV: 5′-[…]-3′. This was subsequently cloned into the pGEM T easy vector (Promega), using the multiple cloning sites to allow for sequencing, large scale harvest. Digestion with ECoR1 released a pure concentrated template for in vitro […] with primers containing T7 recognition sequences to generate double stranded mRNA. This was subsequently cleaved with recombinant human Dicer enzyme to generate a pool of 22mers which cover the region targeted in the 5′prime region of the SMRT gene. Five hundred ng of purified double stranded RNA 22mers were transfected into each well (2×10^5 cells/well in 24-well plates) for 12 hrs. Cells were then left for a further 72 hr to allow gene silencing and subsequently treated with 1α,25(OH)2D3 (100 nM) for 6 hr and total RNA was harvested and Q-RT-PCR for SMRT and target genes was undertaken as above.

RT-4 = experiment: Proliferation assay (ATP bioluminescence), RT-4 bladder cancer cells; settings: Homo sapiens; RT-4 cells, 96 h; read-out: Estimated dose required to inhibit bladder cancer cell proliferation by 50% (ED50)
Method: as §5

Row | pEC50 (RT-4) | SMILES | upregulation of the CDKI p21(waf1/cip1) (p21^(waf1/cip1)) | GADD45α induction, individual agent alone (GADD45α [1]) | cells in G1 (DU-145 cells) [%] | interaction of the ligand with SAHA on proliferation ([2]; co-treatment with SAHA, listed as 1α,25(OH)2D3) | augmentation of the ligand's action by TSA ([2]; co-treatment with TSA) | Sensitivity of EJ-28 proliferation to ligand treatment (EJ-28) | GADD45α induction by ligand alone after SMRT knock down (GADD45α [3]) | ligand action in EJ-28 cells on co-treatment with SAHA (EJ-28; EJ-28, co-treatment with SAHA)
1 |  | O=C(CCCCCCC(=O)Nc1ccccc1)NO [SAHA, Suberoylanilide hydroxamic acid] | potent and immediate upregulation | not significant | 64 |  |  |  |  | 
2 |  | C=C1/C(=C\C=C2/CCC[C@]3(C)[C@@H]([C@H](C)CCCC(C)(C)O)CC[C@@H]23)C[C@@H](O)C[C@@H]1O [Vit D, 1α,25-dihydroxyvitamin D3] |  |  |  | did not appear to extend; also recorded: does not | augments | insensitive | very strongly enhanced | 
3 | 4.96 | C[C@H](CCC(=O)O)[C@H]1CC[C@H]2[C@@H]3[C@H](O)C[C@@H]4C[C@H](O)CC[C@]4(C)[C@H]3CC[C@]12C [CDA, chenodeoxycholic acid] |  |  |  |  |  | insensitive |  | restored the actions
